Laboratory results taken from US20170079989A1, “METHOD FOR TREATMENT OF OSTEOARTHRITIS AND OTHER JOINT RELATED INJURIES AND CONDITIONS” (priority 2010, published 2017).
“Also recorded” adds a separate entry of the source.

Key:
[1] = In vitro release (elution testing) of injectable formulations in sterile PBS at 37 degrees C.; assay type: physicochemical; details: drug encapsulated in SAIB nanoparticles suspended in hyaluronic acid solution, dialysis tubing, 50 rpm, UV-Vis
Method: About 21 mg of curcumin was dissolved in 2 ml of DMSO/SAIB (9:1 ratio of DMSO to SAIB in ethanol). The concentration of SAIB in the solution was about 104 mg per ml of DMSO/SAIB/Ethanol solution. This solution of curcumin/DMSO/SAIB/Ethanol was added drop wise to PBS while stirring. The nanoparticles of curcumin/SAIB formed when the DMSO/ethanol diffused out into the PBS (FIG. 3). 0.5 ml of the nanoparticle solution was then mixed with 2.5 ml of 1% Hyaluronic acid (HA) in PBS. The final mixture was then used for testing of injectability and for elution study.
Elution testing of various injectable formulations as described in example 2 was carried out in sterile PBS and at 37 degrees C. Drugs such as rapamycin, curcumin and sulfasalazine were used in the testing of various formulations. Each formulation was pipetted into a segment of dialysis tubing (Sigma Cat. D0530) with both ends of the tubing sealed. The dialysis tubing with the formulation was then placed inside a container and 15 ml of sterile PBS was added to the container. The container was then placed in an incubator shaker at 37 degrees C., 50 rpm and samples were withdrawn at regular time intervals and replaced with fresh sterile PBS. The samples were measured photometrically (UV-Vis) at a wavelength of 420 nanometers for curcumin, 359 nanometers for sulfasalazine and 278 nanometers for rapamycin.

[2] = Injectable formulation of sulfasalazine in SAIB/DMSO injected into an aqueous environment; assay type: physicochemical; details: drug/DMSO mixed 1:1 with SAIB gel (90% in ethanol)
Excerpt: FIG. 2 is a drawing of the injectable formulation of FIG. 1 when injected into an aqueous environment. The liquid formulation of drug, DMSO and SAIB formed a liquid gel after the ethanol component in the SAIB and DMSO diffused out into the water. […] Controlled release of the drug over a long period of time can be beneficial to treat chronic inflammation in osteoarthritis. A known amount of sulfasalazine was weighed and dissolved in DMSO. This solution of sulfasalazine/DMSO was then mixed in 1:1 ratio with SAIB gel (90% by weight in ethanol). The mixture as shown in FIG. 1 can be loaded into a syringe and injected through a 20 GA needle. The mixture formed a gel that encapsulated the drug after the solvents (DMSO and ethanol) diffused out of the aqueous environment (FIG. 2).

[3] = cited from earlier work

| SMILES | release kinetics of drug from the injectable formulation [1] | release of drug from the SAIB gel [2] | water solubility [3] |
| --- | --- | --- | --- |
| COc1cc(/C=C/C(=O)CC(=O)/C=C/c2ccc(O)c(OC)c2)ccc1O [curcumin, Curcumin] | released over an extended period of time; also recorded: controlled release manner | – | – |
| O=C(O)c1cc(/N=N/c2ccc(S(=O)(=O)Nc3ccccn3)cc2)ccc1O [sulfasalazine, Sulfasalazine] | high at the beginning and level off quickly in a few days | slowly diffused out of the gel in a controlled release manner | slightly water soluble |
